Experimental data from patent publication US9718828B2 (MERCK SHARP & DOHME CORP., priority 2011, dated 2017).
pIC50: −log10 of the molar value. Where a name gives a salt, the structure may show the parent alone. Read-outs that look alike come from different tables or passages of the source.

Biological target: hBTK (full-length BTK, 6HIS-tag cleaved) (Homo sapiens (Human), UniProt Q06187)
Experiment: BTK enzymatic activity, LANCE TR-FRET assay (Assay Method C)
Type: biochemical
Conditions: 50 pM hBTK, 25 μM ATP
[1] = LANCE TR-FRET, class 100-1000 is given as ≧100 nM-<1 μM, read-out: IC50 Btk activity values - Assay Method C
[2] = Table D, Assay Method C (LANCE TR-FRET), read-out: IC50 BTK activity value

Sequence of hBTK (full-length BTK, 6HIS-tag cleaved) (Q06187 whole entry): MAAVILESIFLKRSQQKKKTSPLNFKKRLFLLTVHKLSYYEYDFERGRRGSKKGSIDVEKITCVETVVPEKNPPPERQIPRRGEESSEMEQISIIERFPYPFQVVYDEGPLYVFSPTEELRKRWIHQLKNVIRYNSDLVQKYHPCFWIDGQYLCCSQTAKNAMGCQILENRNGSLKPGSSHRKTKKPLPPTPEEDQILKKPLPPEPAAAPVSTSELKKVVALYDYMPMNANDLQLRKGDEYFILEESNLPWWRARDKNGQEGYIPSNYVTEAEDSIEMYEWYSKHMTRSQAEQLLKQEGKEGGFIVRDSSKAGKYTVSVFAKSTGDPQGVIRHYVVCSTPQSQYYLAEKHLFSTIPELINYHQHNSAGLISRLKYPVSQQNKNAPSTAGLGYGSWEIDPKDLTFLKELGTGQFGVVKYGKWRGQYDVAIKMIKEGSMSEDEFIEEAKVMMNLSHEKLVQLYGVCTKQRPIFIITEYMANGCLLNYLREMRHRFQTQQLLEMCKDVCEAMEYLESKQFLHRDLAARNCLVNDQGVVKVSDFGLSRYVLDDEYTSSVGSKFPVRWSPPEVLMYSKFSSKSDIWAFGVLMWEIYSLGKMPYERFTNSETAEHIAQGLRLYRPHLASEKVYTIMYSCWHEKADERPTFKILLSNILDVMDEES

| Compound | pIC50 [1] | pIC50 [2] |
| --- | --- | --- |
| Nc1nccn2c([C@@H]3CCCN(C(=O)c4cnsn4)C3)nc(-c3ccc(C(=O)Nc4cc(C(F)(F)F)ccn4)cc3)c12 [Example 330, 4-{8-amino-3-[(3R)-1-(1,2,5-thiadiazol-3-ylcarbonyl)piperidin-3-yl]imidazo[1,5-a]pyrazin-1-yl}-N-[4-(trifluoromethyl)pyridin-2-yl]benzamide] | > 8.00 |  |
| Cn1cc2c(n1)CCC[C@H]2n1nc(-c2ccc(C(=O)Nc3cc(C(F)(F)F)ccn3)cc2)c2c(N)ncnc21 [Example 557, 4-{4-amino-1-[(4R)-2-methyl-4,5,6,7-tetrahydro-2H-indazol-4-yl]-1H-pyrazolo[3,4-d]pyrimidin-3-yl}-N-[4-(trifluoromethyl)pyridin-2-yl]benzamide, TFA salt] | 6.00 to 7.00 |  |
| COCCN1CCO[C@@H](c2nc(-c3ccc(C(=O)Nc4cc(C(F)(F)F)ccn4)cc3)c3c(N)ncc(Cl)n23)C1 [Example 542, 4-{8-amino-5-chloro-3-[(2R)-4-(2-methoxyethyl)morpholin-2-yl]imidazo[1,5-a]pyrazin-1-yl}-N-[4-(trifluoromethyl)pyridin-2-yl]benzamide, TFA salt] | > 8.00 |  |
| Cc1ccc(NC(=O)c2ccc(-c3nc([C@@H]4CCCN(C(=O)C5(C)COC5)C4)n4ccnc(N)c34)cc2)nc1 [Example 356, 4-(8-amino-3-{(3R)-1-[(3-methyloxetan-3-yl)carbonyl]piperidin-3-yl}imidazo[1,5-a]pyrazin-1-yl)-N-(5-methylpyridin-2-yl)benzamide] | > 8.00 |  |
| COCC(=O)N1CCO[C@@H](c2nc(-c3ccc(C(=O)Nc4cc(C(F)(F)F)ccn4)cc3)c3c(N)ncc(Cl)n23)C1 [Example 528, 4-{8-amino-5-chloro-3-[(2R)-4-(methoxyacetyl)morpholin-2-yl]imidazo[1,5-a]pyrazin-1-yl}-N-[4-(trifluoromethyl)pyridin-2-yl]benzamide] | > 8.00 | 9.05 |
| CC1(C(=O)N2CCC[C@@H](c3nc(-c4ccc(C(=O)Nc5ncns5)cc4)c4c(N)nccn34)C2)COC1 [Example 368, 4-(8-amino-3-{(3R)-1-[(3-methyloxetan-3-yl)carbonyl]piperidin-3-yl}imidazo[1,5-a]pyrazin-1-yl)-N-1,2,4-thiadiazol-5-ylbenzamide] | 7.00 to 8.00 |  |
| Nc1ncnc2c1c(-c1ccc(C(=O)Nc3cc(C(F)(F)F)ccn3)cc1)nn2[C@H]1CCCc2[nH]ncc21 [Example 555, 4-{4-amino-1-[(4S)-4,5,6,7-tetrahydro-1H-indazol-4-yl]-1H-pyrazolo[3,4-d]pyrimidin-3-yl}-N-[4-(trifluoromethyl)pyridin-2-yl]benzamide, TFA salt] | > 8.00 |  |
| Cc1ccnc(NC(=O)c2ccc(-c3nc([C@@H]4CCCN(C(=O)C5(C)COC5)C4)n4c(Cl)cnc(N)c34)c(F)c2)c1 [Example 448, 4-(8-amino-5-chloro-3-{(3R)-1-[(3-methyloxetan-3-yl)carbonyl]piperidin-3-yl}imidazo[1,5-a]pyrazin-1-yl)-3-fluoro-N-(4-methylpyridin-2-yl)benzamide] | > 8.00 |  |
| CC1(C(=O)N2CCC[C@@H](c3nc(-c4ccc(C(=O)Nc5cc(OC(F)F)ccn5)cc4F)c4c(N)nccn34)C2)COC1 [Example 478, 4-(8-amino-3-{(3R)-1-[(3-methyloxetan-3-yl)carbonyl]piperidin-3-yl}imidazo[1,5-a]pyrazin-1-yl)-N-[4-(difluoromethoxy)pyridin-2-yl]-3-fluorobenzamide] | > 8.00 |  |
| Cn1ccc(NC(=O)c2ccc(-c3nc([C@@H]4CCCN(C(=O)C5(C)COC5)C4)n4ccnc(N)c34)cc2)n1 [Example 365, 4-(8-amino-3-{(3R)-1-[(3-methyloxetan-3-yl)carbonyl]piperidin-3-yl}imidazo[1,5-a]pyrazin-1-yl)-N-(1-methyl-1H-pyrazol-3-yl)benzamide] | 7.00 to 8.00 |  |
| C[C@H]1CC[C@@H](c2nc(-c3ccc(C(=O)Nc4cc(C(F)F)ccn4)cc3F)c3c(N)nccn23)CN1C(=O)C1(C)COC1 [Example 434, 4-(8-amino-3-{(3R,6S)-6-methyl-1-[(3-methyloxetan-3-yl)carbonyl]piperidin-3-yl}imidazo[1,5-a]pyrazin-1-yl)-N-[4-(difluoromethyl)pyridin-2-yl]-3-fluorobenzamide] | > 8.00 |  |
| C[C@H]1CO[C@@H](c2nc(-c3ccc(C(=O)Nc4cc(C(F)(F)F)ccn4)cc3)c3c(N)nccn23)CN1C(=O)C1(C)COC1 [Example 515, 4-(8-amino-3-{(2R,5S)-5-methyl-4-[(3-methyloxetan-3-yl)carbonyl]morpholin-2-yl}imidazo[1,5-a]pyrazin-1-yl)-N-[4-(trifluoromethyl)pyridin-2-yl]benzamide, TFA salt] | > 8.00 |  |
| COCC(=O)N1CCC[C@@H](c2nc(-c3ccc(C(=O)Nc4cc(C(F)(F)F)ccn4)cc3)c3c(N)ncc(Cl)n23)C1 [Example 442, 4-{8-amino-5-chloro-3-[(3R)-1-(methoxyacetyl)piperidin-3-yl]imidazo[1,5-a]pyrazin-1-yl}-N-[4-(trifluoromethyl)pyridin-2-yl]benzamide] | > 8.00 |  |
| Cc1cnc(N)c2c(-c3ccc(C(=O)Nc4cc(C(F)F)ccn4)cc3)nc([C@@H]3CCCN(C(=O)C4(C)COC4)C3)n12 [Example 458, 4-(8-amino-5-methyl-3-{(3R)-1-[(3-methyloxetan-3-yl)carbonyl]piperidin-3-yl}imidazo[1,5-a]pyrazin-1-yl)-N-[4-(difluoromethyl)pyridin-2-yl]benzamide] | > 8.00 |  |
| Nc1nccn2c([C@H]3CC[C@H](C(F)(F)F)N(C(=O)C4CC4)C3)nc(-c3ccc(C(=O)Nc4cc(F)ccn4)cc3)c12 [Example 424, 4-{8-amino-3-[(3S,6R)-1-(cyclopropylcarbonyl)-6-(trifluoromethyl)piperidin-3-yl]imidazo[1,5-a]pyrazin-1-yl}-N-(4-fluoropyridin-2-yl)benzamide] | > 8.00 |  |
| COCC1(C(=O)N2CCC[C@@H](c3nc(-c4ccc(C(=O)Nc5cc(C(F)(F)F)ccn5)cc4)c4c(N)nccn34)C2)CC1 [Example 334, 4-{8-amino-3-[(3R)-1-{[1-(methoxymethyl)cyclopropyl]carbonyl}piperidin-3-yl]imidazo[1,5-a]pyrazin-1-yl}-N-[4-(trifluoromethyl)pyridin-2-yl]benzamide] | > 8.00 |  |
| C[C@H]1CC[C@@H](c2nc(-c3ccc(C(=O)Nc4cc(C(F)(F)F)ccn4)cc3)c3c(N)nccn23)CN1C(=O)C1(C)COC1 [Example 393, 4-(8-amino-3-{(3R,6S)-6-methyl-1-[(3-methyloxetan-3-yl)carbonyl]piperidin-3-yl}imidazo[1,5-a]pyrazin-1-yl)-N-[4-(trifluoromethyl)pyridin-2-yl]benzamide] | > 8.00 | 9.78 |
| C[C@H]1CC[C@@H](c2nc(-c3ccc(C(=O)Nc4cc(C(F)F)ccn4)cc3F)c3c(N)nccn23)CN1C(=O)C1CC1 [Example 436, 4-{8-amino-3-[(3R,6S)-1-(cyclopropylcarbonyl)-6-methylpiperidin-3-yl]imidazo[1,5-a]pyrazin-1-yl}-N-[4-(difluoromethyl)pyridin-2-yl]-3-fluorobenzamide] | > 8.00 | 9.32 |
| COc1ccnc(NC(=O)c2ccc(-c3nc([C@@H]4CCCN(C(C)=O)C4)n4c(C)cnc(N)c34)cc2)c1 [Example 460, 4-{3-[(3R)-1-acetylpiperidin-3-yl]-8-amino-5-methylimidazo[1,5-a]pyrazin-1-yl}-N-(4-methoxypyridin-2-yl)benzamide] | > 8.00 |  |
| CC1(C(=O)N2CCC[C@@H](c3nc(-c4ccc(C(=O)Nc5cc(C(F)(F)F)ccn5)cc4)c4c(N)ncc(C5(O)COC5)n34)C2)COC1 [Example 469, 4-[8-amino-5-(3-hydroxyoxetan-3-yl)-3-{(3R)-1-[(3-methyloxetan-3-yl)carbonyl]piperidin-3-yl}imidazo[1,5-a]pyrazin-1-yl]-N-[4-(trifluoromethyl)pyridin-2-yl]benzamide] | 7.00 to 8.00 |  |
| CN(C)C(=O)N1C[C@@H](c2nc(-c3ccc(C(=O)Nc4cc(C(F)(F)F)ccn4)cc3)c3c(N)nccn23)CC[C@@H]1C(F)(F)F [Example 426, (2R,5S)-5-[8-amino-1-(4-{[4-(trifluoromethyl)pyridin-2-yl]carbamoyl}phenyl)imidazo[1,5-a]pyrazin-3-yl]-N,N-dimethyl-2-(trifluoromethyl)piperidine-1-carboxamide] | > 8.00 |  |
| Nc1ncnc2c1c(-c1ccc(C(=O)Nc3cc(C(F)(F)F)ccn3)cc1)nn2[C@@H]1CCCc2[nH]ncc21 [Example 554, 4-{4-amino-1-[(4R)-4,5,6,7-tetrahydro-1H-indazol-4-yl]-1H-pyrazolo[3,4-d]pyrimidin-3-yl}-N-[4-(trifluoromethyl)pyridin-2-yl]benzamide, TFA salt] | 7.00 to 8.00 |  |
| CC(=O)N1CCC[C@@H](c2nc(-c3ccc(C(=O)Nc4cc(C(F)(F)F)ccn4)cc3)c3c(N)ncc(Cl)n23)C1 [Example 440, 4-{3-[(3R)-1-acetylpiperidin-3-yl]-8-amino-5-chloroimidazo[1,5-a]pyrazin-1-yl}-N-[4-(trifluoromethyl)pyridin-2-yl]benzamide] | > 8.00 |  |
| CC1(C(=O)N2CCC[C@@H](c3nc(-c4ccc(C(=O)Nc5cnsc5)cc4)c4c(N)nccn34)C2)COC1 [Example 370, 4-(8-amino-3-{(3R)-1-[(3-methyloxetan-3-yl)carbonyl]piperidin-3-yl}imidazo[1,5-a]pyrazin-1-yl)-N-isothiazol-4-ylbenzamide] | 7.00 to 8.00 |  |
| CCn1cc2c(n1)CCC[C@@H]2n1nc(-c2ccc(C(=O)Nc3cc(C(F)(F)F)ccn3)cc2)c2c(N)ncnc21 [Example 560, 4-{4-amino-1-[(4S)-2-ethyl-4,5,6,7-tetrahydro-2H-indazol-4-yl]-1H-pyrazolo[3,4-d]pyrimidin-3-yl}-N-[4-(trifluoromethyl)pyridin-2-yl]benzamide, TFA salt] | 7.00 to 8.00 |  |
| COCCC(=O)N1C[C@H](c2nc(-c3ccc(C(=O)Nc4cc(C(F)(F)F)ccn4)c(F)c3)c3c(N)nccn23)CC[C@@H]1C [Example 392, 4-{8-amino-3-[(3R,6S)-1-(3-methoxypropanoyl)-6-methylpiperidin-3-yl]imidazo[1,5-a]pyrazin-1-yl}-2-fluoro-N-[4-(trifluoromethyl)pyridin-2-yl]benzamide] | > 8.00 |  |
